Values of other authors as cited in patent US6515019B2, “Methods of providing symptomatic and prophylactic treatment for medical and neurological conditions” (priority 1996, dated 2003).

Tests used:
[1] = patients on felbamate monotherapy (Faught E., Neurology 43:688-692, 1993)
[2] = add-on therapy in partial epilepsy in children (Carmant J., Pediatr 125:481-486, 1994)
[3] = test system: neuronal cell death; conditions: administered post-hoc; animal models of ischemia (Wasterlain 1993; Shuaib 1996; Wasterlain 1996)

Weight loss [1]: 4-5%
SMILES: NC(=O)OCC(COC(N)=O)c1ccccc1 [Felbamate, 2-phenyl-1,3-propanediol dicarbamate]
weight loss course [2]: transient and returned to normal after twenty weeks
prevention of neuronal cell death [3]: effective in preventing neuronal cell death
